# Experimental data reported in article PMC9749936, “Synthesis and structure–activity relationship studies of N-terminal analogues of the lipopeptide antibiotics brevicidine and laterocidine” (RSC Medicinal Chemistry, 2022).
# Bridge positions count the residues as written; N and C are the ends. Square brackets hold non-standard residues; d marks the D form. Peptide text beside a SMILES is read from it. * marks the point of attachment. ξ: configuration not given here. Palmitoyl = CCCCCCCCCCCCCCCC(=O)*; Hexanoyl(4ξ-Me) = CCC(C)CCC(=O)*; dOrn = NCCC[C@@H](N)C(=O)O; Octanoyl = CCCCCCCC(=O)*; Orn = NCCC[C@H](N)C(=O)O
# Key:
# [1] = tested on: E. coli ATCC 25922; assay type: cell-based, Escherichia coli; conditions: ATCC 25922, 18 h
# Method: (§1) The minimum inhibitory concentrations (MICs) of brevicidine and laterocidine analogues were determined against a panel of clinically relevant ESKAPE pathogens; Escherichia coli (E. coli), Klebsiella pneumoniae (K. pneumoniae), Acinetobacter baumannii (A. baumannii), Pseudomonas aeruginosa (P. aeuroginosa) and Staphylococcus aureus (S. aureus), which cause the majority of nosocomial infections in the United States.[16] […] In this resistance mechanism, the polymyxin target (lipid A) is modified, reducing binding affinity. For this reason, a strain of colistin-resistant E. coli carrying the mcr-1 gene was also included in the panel. […]
# (§2) IV. Antimicrobial testing
# (§3) All minimum inhibitory concentrations (MICs) were determined according to Clinical and Standards Laboratory Institute (CLSI) guidelines. Blood agar plates were inoculated with glycerol stocks of E. coli ATCC 25922, K. pneumoniae ATCC 13883, A. baumannii ATCC 17961, P. aeruginosa PAO1 and S. aureus USA300. The inoculated agar plates were then incubated for 16 h at 37 °C . Individually grown colonies were subsequently used to inoculate 5 mL aliquots of TSB that were then incubated at 37 °C with shaking at 220 rpm. E. coli 25922 MCR-1 glycerol stock was used to inoculate 5 mL of TSB supplemented with kanamycin that was then incubated for 16 h at 37 °C with shaking at 220 rpm. The next day the culture was diluted 100 fold in TSB supplemented with kanamycin and incubated at 37 °C with shaking at 220 rpm. In parallel, the lipopeptide antibiotics DMSO stocks to be assessed were serially diluted with MHB in polypropylene 96-well plates (50 µL in each well). Colistin sulfate stocks were dissolved in water before being diluted with MHB. Aliquots of the inoculated TSB were incubated until an OD600 of around 0.5 was reached. The bacterial suspensions were then diluted with MHB (2 x 10^5 CFU mL-1) and added to the microplates containing the test compounds (50 µL to each well). The well-plates were sealed with an adhesive membrane and after 18 h of incubation at 37 °C with shaking at 600 rpm, the wells were visually inspected for bacterial […]
# (§4) growth. MIC values reported are based on three technical replicates and defined as the lowest concentration of the compound that prevented visible growth of bacteria. […]
# (§5) The values obtained from a read-out at 415 nm were corrected for background (negative control) and transformed to a percentage relative to the positive control.
# (§6) VI. HPLC and HRMS analysis of peptides
# (§7) Peptide Name Chemical Calcd Mass found Calcd Overall […]
# [2] = tested on: E. coli ATCC 25922 MCR-1; assay type: cell-based, Escherichia coli; conditions: colistin-resistant strain carrying mcr-1; CLSI broth microdilution in MHB, 18 h at 37 °C, visual inspection; three technical replicates
# Method: as §1
# Colisitin sulfate was purchased from Activate Scientific. Kanamycin monosulfate was purchased from MP Biomedicals. E. coli ATCC 25922, S. aureus USA300 (ATCC BAA1717), K. pneumoniae ATCC 13883 and A. baumannii ATCC 17961 belong to the American Type Culture Collection (ATCC). P. aeruginosa PAO1 was kindly provided by L.H.C. Quarles Van Ufford, Utrecht University, Utrecht, The Netherlands. E. coli ATCC 25922 MCR-1 was transfected in house using the pGDP2-MCR1 plasmid kindly provided by Yong-Xin Li, The University of Hong Kong, Hong Kong, China. Sheep blood agar plates (Ref. PB5039A) were purchased from Thermo Scientific. Tryptic soy broth (Ref. 02-200-500) was purchased from Scharlab. Mueller-Hinton broth (Ref. X927.1) was purchased from Carl Roth. Polypropylene 96-wells plates (Ref. 3879) were purchased from Corning. […]
# (10.0 mL). 2-Chlorotrityl (CT) chloride resin (2.00 g, 0.81 mmol g-1) and DIPEA (420 µL, 2.40 mmol) were added. […]
# A gradient […]
# method for C14 - C16 laterocidine was employed, starting at 100% solvent A for 2 min, ramping up to 70 % solvent B over 45 min, ramping up to 100% solvent B over 1 min, remaining there for 6 min before ramping down to 100% solvent A and remaining there for 5 min. High resolution mass spectrometry (HRMS) spectra of brevicidine peptides were recorded by Analytical Services and Environmental Projects (ASEP) at Queen’s University Belfast on a Waters LCT Premier ToF mass spectrometer using the electrospray ionisation (ESI) technique. HRMS spectra of laterocidine peptides were performed on a Thermo Scientific Dionex UltiMate 3000 HPLC system with a Phenomenex Kinetex C18 (2.6 µm, 2.1 x 150 mm) column at 35 °C and equipped with a diode array detector. The following solvent system, at a flow rate of 0.3 mL/min, was used: solvent A = 0.1% formic acid in water, solvent B = 0.1% formic acid in acetonitrile. A gradient method was employed, starting at 95 % solvent A and 5 % solvent B for 1 min, ramping up to 95 % solvent B over 9 min, ramping up to 98 % solvent B over 1 min, remaining there for 1 min before ramping back down to 95 % solvent A over 2 min and remaining there for 1 min.
# The system was connected to a Bruker micrOTOF-Q II mass spectrometer (ESI ionization) calibrated internally with sodium […]
# as §2
# as §3, with “MHB.” for “MHB. Aliquots of the inoculated TSB were incubated until an OD600 of around 0.5 was reached. The bacterial suspensions were then diluted with MHB (2 x 10^5 CFU mL-1) and added to the microplates containing the test compounds (50 µL to each well). The well-plates were sealed with an adhesive membrane and after 18 h of incubation at 37 °C with shaking at 600 rpm, the wells were visually inspected for bacterial”
# [3] = tested on: K. pneumoniae ATCC 13883; assay type: cell-based, Klebsiella pneumoniae; conditions: ATCC 13883, 18 h
# Method: as §1, §2, §3, §4, §5, §6, §7
# [4] = tested on: A. baumannii ATCC 17961; assay type: cell-based, Acinetobacter baumannii; conditions: ATCC 17961, 18 h
# Method: as §1, §2, §3, §4, §5, §6, §7
# [5] = tested on: P. aeruginosa PAO1; assay type: cell-based, Pseudomonas aeruginosa; conditions: PAO1, 18 h
# Method: as §1, §2, §3, §4, §5, §6, §7
# [6] = tested on: S. aureus USA300; assay type: cell-based, Staphylococcus aureus; conditions: USA300, 18 h
# Method: as §1, §2, §3, §4, §5, §6, §7
# [7] = tested on: Sheep red blood cells; assay type: cell-based; conditions: red cells of sheep, 1 h, 64 μg mL^−1
# Method: Having ascertained the antimicrobial activity of all synthetic peptides against a panel of ESKAPE pathogens, we next assessed their mammalian toxicity with hemolytic assays using sheep red blood cells. The % hemolysis for all peptides at 64 μg mL^−1 was determined, with the hemolysis induced by the surfactant 0.1% Triton X-100 taken as 100%. […] Hemolysis was <1% for all analogues with a C8 chain or shorter, including the strongest antibacterial peptide C8-Lat (22). Hemolytic activity increased up to C14 (>50% for C14-Lat) and then decreased at longer chain lengths, perhaps due to decreased solubility of peptides or aggregation. […]
# Phosphate-Buffered Saline (PBS) containing 0.002% Tween20 (buffer) five times. Then, the red blood cells were normalized to obtain a positive control read-out between 2.5 and 3.0 at 415 nm to stay within the linear range with the maximum sensitivity. A serial dilution of the compounds (128 – 1 µg/mL, 75 µL) was prepared in a 96-well polypropylene plate. The outer border of the plate was filled with 75 µL buffer. Each plate contained a positive control (0.1% Triton-X final concentration, 75 µL) and a negative control (buffer, 75 µL) in triplicate. The normalized blood cells (75 µL) were added and the plates were incubated at 37 °C for 1 h while shaking at 500 rpm. A flat-bottom polystyrene plate with 100 µL buffer in each well was prepared. After incubation, the plates were centrifuged (800 g for 5 min at room temperature) and 25 µL of the supernatant was transferred to their respective wells in the flat-bottom plate. The values obtained from a read-out at 415 nm were corrected for background (negative control) and transformed to a percentage relative to the positive control. […]
Compound,Antimicrobial activity (MIC) E. coli ATCC 25922 [1] [mg/L],Antimicrobial activity (MIC) E. coli ATCC 25922 MCR-1 [2] [mg/L],Antimicrobial activity (MIC) K. pneumoniae ATCC 13883 [3] [mg/L],Antimicrobial activity (MIC) A. baumannii ATCC 17961 [4] [mg/L],Antimicrobial activity (MIC) P. aeruginosa PAO1 [5] [mg/L],Antimicrobial activity (MIC) S. aureus USA300 [6] [mg/L],"% Hemolytic activity, sheep red blood cells [7] [%]"
CC[C@H](C)[C@@H]1NC(=O)[C@@H](NC(=O)[C@H](Cc2c[nH]c3ccccc23)NC(=O)[C@@H](CCCN)NC(=O)CNC(=O)[C@H](CCCN)NC(=O)[C@@H](CCCN)NC(=O)[C@@H](Cc2c[nH]c3ccccc23)NC(=O)[C@@H](Cc2ccc(O)cc2)NC(=O)[C@@H](CC(N)=O)NC(C)=O)[C@@H](C)OC(=O)[C@H](CO)NC(=O)CNC1=O [Compound 10] (Ac-[dN][dY][dW][dOrn][Orn]G[dOrn]WTIGS; ester 9-C),>32,>32,>32,>32,8,>32,0.2
"CCC(C)CCC(=O)N[C@H](CC(N)=O)C(=O)N[C@H](Cc1ccc(O)cc1)C(=O)N[C@H](Cc1c[nH]c2ccccc12)C(=O)N[C@H](CCCN)C(=O)N[C@@H](CCCN)C(=O)NCC(=O)N[C@H](CCCN)C(=O)N[C@@H](Cc1c[nH]c2ccccc12)C(=O)N[C@@H]1C(=O)N[C@@H]([C@@H](C)CC)C(=O)NCC(=O)N[C@@H](CO)C(=O)O[C@@H]1C (some centres unmarked) [Compound 1, brevicidine] ({Hexanoyl(4ξ-Me)}-[dN][dY][dW][dOrn][Orn]G[dOrn]WTIGS; ester 9-C)",4,4,2,4,8,>32,0.8
CCCCCCCCCCCCCCCC(=O)N[C@H](CO)C(=O)N[C@H](Cc1ccc(O)cc1)C(=O)N[C@H](Cc1c[nH]c2ccccc12)C(=O)N[C@H](CCCN)C(=O)N[C@@H](CCCN)C(=O)NCC(=O)N[C@H](CCCN)C(=O)N[C@@H](Cc1c[nH]c2ccccc12)C(=O)N[C@@H]1C(=O)N[C@@H]([C@@H](C)CC)C(=O)N[C@@H](CC(N)=O)C(=O)NCC(=O)NCC(=O)O[C@@H]1C [Compound 26] (Palmitoyl-[dS][dY][dW][dOrn][Orn]G[dOrn]WTINGG; ester 9-C),32,32,>32,4,32,32,46.1
CCCCCCCC(=O)N[C@H](CC(N)=O)C(=O)N[C@H](Cc1ccc(O)cc1)C(=O)N[C@H](Cc1c[nH]c2ccccc12)C(=O)N[C@H](CCCN)C(=O)N[C@@H](CCCN)C(=O)NCC(=O)N[C@H](CCCN)C(=O)N[C@@H](Cc1c[nH]c2ccccc12)C(=O)N[C@@H]1C(=O)N[C@@H]([C@@H](C)CC)C(=O)NCC(=O)N[C@@H](CO)C(=O)O[C@@H]1C [Compound 13] (Octanoyl-[dN][dY][dW][dOrn][Orn]G[dOrn]WTIGS; ester 9-C),16,16,16,16,8,>32,0.4
CC[C@H](C)[C@@H]1NC(=O)[C@@H](NC(=O)[C@H](Cc2c[nH]c3ccccc23)NC(=O)[C@@H](CCCN)NC(=O)CNC(=O)[C@H](CCCN)NC(=O)[C@@H](CCCN)NC(=O)[C@@H](Cc2c[nH]c3ccccc23)NC(=O)[C@@H](Cc2ccc(O)cc2)NC(=O)[C@H](N)CO)[C@@H](C)OC(=O)CNC(=O)CNC(=O)[C@H](CC(N)=O)NC1=O [Compound 18] (H-[dS][dY][dW][dOrn][Orn]G[dOrn]WTINGG; ester 9-C),>32,>32,>32,>32,>32,>32,0.2
